From ChEMBL document CHEMBL1201862, “PubChem BioAssay data set” (2004)
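Compound exposure: 48 hours, 5 concentrations, 96-well plates. GI50 is the concentration that inhibits growth by half.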 Calls of active or inactive are those of the source. No stated cut-off is given here; in the data, active = GI50 up to about 1.1 µM and inactive = higher.

Legend:
Assay in all cases: DTP human tumour cell line panel, 48 h
MDA-N = system: MDA-N
HCT-116 = system: HCT-116
HL-60 = system: HL-60
SR = system: SR
RPMI-8226 = system: RPMI-8226
UACC-257 = system: UACC-257
PC-3 = system: PC-3
OVCAR-4 = system: OVCAR-4
M14 = system: M14
NCI-H23 = system: NCI-H23
A549 = system: A549
SF-268 = system: SF-268
SW-620 = system: SW-620
SK-MEL-28 = system: SK-MEL-28
ACHN = system: ACHN
BT-549 = system: BT-549
UO-31 = system: UO-31
MDA-MB-231 = system: MDA-MB-231
T47D = system: T47D

| Structure (SMILES) | GI50 (MDA-N) | GI50 (HCT-116) | GI50 (HL-60) | GI50 (SR) | GI50 (RPMI-8226) | GI50 (UACC-257) | GI50 (PC-3) | GI50 (OVCAR-4) | GI50 (M14) | GI50 (NCI-H23) | GI50 (A549) | GI50 (SF-268) | GI50 (SW-620) | GI50 (SK-MEL-28) | GI50 (ACHN) | GI50 (BT-549) | GI50 (UO-31) | GI50 (MDA-MB-231) | GI50 (T47D) |
| --- | --- | --- | --- | --- | --- | --- | --- | --- | --- | --- | --- | --- | --- | --- | --- | --- | --- | --- | --- |
| O=C1c2ccccc2-c2nc3ccc(O)cc3n21 | > 100 µM (inactive) | > 100 µM (inactive) | > 100 µM (inactive) | > 100 µM (inactive) | > 100 µM (inactive) | > 100 µM (inactive) | > 100 µM (inactive) | > 100 µM (inactive) | > 100 µM (inactive) | > 100 µM (inactive) | > 100 µM (inactive) | > 100 µM (inactive) | > 100 µM (inactive) | > 100 µM (inactive) | > 100 µM (inactive) | > 100 µM (inactive) | > 100 µM (inactive) | – | – |
| O=[N+]([O-])c1ccc(C2CC(c3ccc(NCc4nc5ccccc5[nH]4)cc3)=NO2)cc1 (stereo not given) | – | 27.4 µM (inactive) | 20.4 µM (inactive) | 4.93 µM (inactive) | 18.5 µM (inactive) | – | – | 14.3 µM (inactive) | 33.5 µM (inactive) | 34.6 µM (inactive) | 98.2 µM (inactive) | > 100 µM (inactive) | 33.5 µM (inactive) | > 100 µM (inactive) | 33.3 µM (inactive) | – | > 100 µM (inactive) | – | – |
| COC(=O)C1=C(CCC[C@H](C)O[Si](C)(C)C(C)(C)C)NC(=O)N2[C@@H](CCO)CC[C@H]12 | – | 4.18 µM (inactive) | – | – | 14.9 µM (inactive) | 11.8 µM (inactive) | – | 16.5 µM (inactive) | 16.3 µM (inactive) | 13.2 µM (inactive) | 12.3 µM (inactive) | 14.6 µM (inactive) | 20.1 µM (inactive) | 18.5 µM (inactive) | 16.2 µM (inactive) | 15 µM (inactive) | 15.6 µM (inactive) | 16.2 µM (inactive) | 11.6 µM (inactive) |
| CCOC(=O)c1c(SC(=O)c2cc(OC)c(OC)c(OC)c2)n(-c2ccccc2)c(=S)n(-c2ccccc2)c1=O | > 100 µM (inactive) | > 100 µM (inactive) | > 100 µM (inactive) | > 100 µM (inactive) | – | > 100 µM (inactive) | > 100 µM (inactive) | > 100 µM (inactive) | > 100 µM (inactive) | > 100 µM (inactive) | > 100 µM (inactive) | > 100 µM (inactive) | > 100 µM (inactive) | > 100 µM (inactive) | > 100 µM (inactive) | – | – | > 100 µM (inactive) | > 100 µM (inactive) |
| CCOP(=O)(OCC)/C(=C\n1ccc(=O)[nH]c1=S)C(=O)OC | > 100 µM (inactive) | > 100 µM (inactive) | > 100 µM (inactive) | > 100 µM (inactive) | > 100 µM (inactive) | > 100 µM (inactive) | > 100 µM (inactive) | > 100 µM (inactive) | > 100 µM (inactive) | > 100 µM (inactive) | > 100 µM (inactive) | > 100 µM (inactive) | > 100 µM (inactive) | > 100 µM (inactive) | > 100 µM (inactive) | – | > 100 µM (inactive) | > 100 µM (inactive) | > 100 µM (inactive) |
| CC(=O)OCc1nc(C#N)c(N)o1 | > 100 µM (inactive) | > 100 µM (inactive) | > 100 µM (inactive) | > 100 µM (inactive) | > 100 µM (inactive) | > 100 µM (inactive) | > 100 µM (inactive) | > 100 µM (inactive) | – | > 100 µM (inactive) | – | > 100 µM (inactive) | > 100 µM (inactive) | > 100 µM (inactive) | > 100 µM (inactive) | > 100 µM (inactive) | > 100 µM (inactive) | > 100 µM (inactive) | – |
| OCC(O)C(O)C(C=NNc1ncnc2ccc(Br)cc12)=NNc1ncnc2ccc(Br)cc12 (stereo not given) | 3.63 µM (inactive) | 0.358 µM (active) | 0.282 µM (active) | 0.492 µM (active) | 1.19 µM (inactive) | 3.1 µM (inactive) | 4.35 µM (inactive) | 0.383 µM (active) | 1.62 µM (inactive) | – | 2.88 µM (inactive) | 1.29 µM (inactive) | 0.809 µM (active) | 1.45 µM (inactive) | 0.729 µM (active) | – | 2.78 µM (inactive) | 1.88 µM (inactive) | 0.373 µM (active) |
| O=C(/C=C/c1csc(-c2ccccc2)n1)NCc1ccc(C(=O)NCc2ccccc2)cc1 | – | > 100 µM (inactive) | – | > 100 µM (inactive) | > 100 µM (inactive) | > 100 µM (inactive) | > 100 µM (inactive) | > 100 µM (inactive) | > 100 µM (inactive) | > 100 µM (inactive) | > 100 µM (inactive) | 35.3 µM (inactive) | > 100 µM (inactive) | > 100 µM (inactive) | 67.1 µM (inactive) | > 100 µM (inactive) | > 100 µM (inactive) | 18.7 µM (inactive) | > 100 µM (inactive) |
| CC1(C)CC(=O)C(=CNC(=O)c2ccncc2)C(=O)C1 | > 100 µM (inactive) | > 100 µM (inactive) | 71.3 µM (inactive) | – | – | > 100 µM (inactive) | > 100 µM (inactive) | > 100 µM (inactive) | > 100 µM (inactive) | > 100 µM (inactive) | > 100 µM (inactive) | > 100 µM (inactive) | > 100 µM (inactive) | > 100 µM (inactive) | > 100 µM (inactive) | > 100 µM (inactive) | > 100 µM (inactive) | > 100 µM (inactive) | – |
